Where two headings read alike, the source gives them in different places.
Tests used:
Assay in all cases: Antimicrobial activity test (growth, OD600)
E. coli BL21 = type: cell-based; conditions: Escherichia coli, BL21, BL21; 20 h, 37 °C, OD600; read-out: Bacterial Viability IC50, E. coli BL21
B. subtilis ATCC6633 = type: cell-based; conditions: Bacillus subtilis, ATCC6633; 20 h, 37 °C, OD600; read-out: Bacterial Viability IC50, B. subtilis ATCC6633
[1] = tested on: Pseudomonas aeruginosa 3/88; type: cell-based; conditions: read-out: Bacterial Viability (IC50)
Enterobacter cloacae = type: cell-based; conditions: read-out: Bacterial Viability (IC50)
[2] = tested on: Enterococcus faecium ATCC 804B; type: cell-based; conditions: ATCC804B, read-out: Bacterial Viability (IC50)
[3] = tested on: Staphylococcus aureus ATC6538P; type: cell-based; conditions: Staphylococcus aureus ATC6538P; read-out: Bacterial Viability (IC50)
Salmonella typhimurium = type: cell-based; conditions: Salmonella enterica, read-out: Bacterial Viability (IC50)
E. coli BW25113ΔtolC = conditions: for Higher sensitivity of ΔtolC and imp-2413+ derivatives compared to BW25113: viability, Figure 5A

In the case of `O=C(/C=C/c1csnn1)c1ccccc1Cl` [HSI#01], the IC50 (E. coli BL21) is reported as over 100 µM, the IC50 (B. subtilis ATCC6633) is reported as 37.6 µM and the IC50 [1] is reported as over 100 µM. It also gave an IC50 (Enterobacter cloacae) of over 100 µM, an IC50 [2] of 34.5 µM and an IC50 [3] of 14.8 µM. The IC50 (Salmonella typhimurium) was over 100 µM, the IC50 (E. coli BW25113ΔtolC; Escherichia coli, read-out: Viability IC50, BW25113ΔtolC, E. coli strain missing TolC) was under 14 µM and the “Higher sensitivity of ΔtolC and imp-2413+ derivatives compared to BW25113” value (E. coli BW25113ΔtolC) was 2 to 40 times.

`O=C(/C=C/c1csnn1)c1cc(Cl)ccc1Cl` [HSI#05] was tested, and the IC50 (E. coli BL21) was over 100 µM, the IC50 (B. subtilis ATCC6633) was 27.8 µM and the IC50 [1] was over 100 µM. The IC50 (Enterobacter cloacae) was over 100 µM, the IC50 [2] was 9.4 µM and the IC50 [3] was 4.1 µM. For the same compound, the IC50 (Salmonella typhimurium) was over 100 µM, the IC50 (E. coli BW25113ΔtolC; read-out: Viability IC50, BW25113ΔtolC, E. coli strain missing TolC, listed as HSI#5) was under 14 µM and the “Higher sensitivity of ΔtolC and imp-2413+ derivatives compared to BW25113” value (E. coli BW25113ΔtolC) was 2 to 40 times.

In the case of `O=C(/C=C/c1csnn1)c1cccc2ccccc12` [HSI#10], the IC50 (E. coli BL21) is reported as over 100 µM, the IC50 (B. subtilis ATCC6633) is reported as 26 µM and the IC50 [1] is reported as over 100 µM. For the same compound, the IC50 (Enterobacter cloacae) was over 100 µM, the IC50 [2] was 23.5 µM and the IC50 [3] was 7.8 µM. For the same compound, the IC50 (Salmonella typhimurium) was over 100 µM and the “Higher sensitivity of ΔtolC and imp-2413+ derivatives compared to BW25113” value (E. coli BW25113ΔtolC) was 2 to 40 times.
